From patent US12185723B2, “Herbicidally active 3-phenylisoxazoline-5-carboxamides of s-containing cyclopentenylcarboxylic esters” (Bayer Aktiengesellschaft, priority 2019, dated 2025)

How the values were obtained:
Format in all cases: in vivo
[1] = tested on: Viola tricolor; assay: Post-emergence herbicidal action against VIOTR
Procedure, shortened: (§1)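 Greenhouse pot test in sandy loam; plants sprayed at the one-leaf stage (2–3 weeks after sowing) with WP or EC formulations in water plus 0.5% additive at 600 l/ha. Activity rated visually about 3 weeks later against untreated controls (0% = like control, 100% = plants dead).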

[2] = tested on: Avena fatua; assay: Post-emergence herbicidal action against AVEFA; settings: visual rating about 3 weeks after treatment
Procedure, shortened: as §1

[3] = tested on: Stellaria media; assay: Post-emergence herbicidal action against STEME
Procedure, shortened: as §1

[4] = tested on: Abutilon theophrasti; assay: Post-emergence herbicidal action against ABUTH; settings: visual rating about 3 weeks after treatment
Procedure, shortened: as §1

[5] = tested on: Lolium rigidum; assay: Post-emergence herbicidal action against LOLRI; settings: visual rating about 3 weeks after treatment
Procedure, shortened: as §1

[6] = tested on: Pharbitis purpurea; assay: Post-emergence herbicidal action against PHBPU; settings: 80 g a.i./ha
Procedure, shortened: as §1

[7] = tested on: Amaranthus retroflexus; assay: Post-emergence herbicidal action against AMARE
Procedure, shortened: as §1

[8] = tested on: Veronica persica; assay: Post-emergence herbicidal action against VERPE
Procedure, shortened: as §1

[9] = tested on: Alopecurus myosuroides; assay: Post-emergence herbicidal action against ALOMY; settings: visual rating about 3 weeks after treatment
Procedure, shortened: as §1

[10] = tested on: Matricaria inodora; assay: Post-emergence herbicidal action against MATIN; settings: 80 g a.i./ha, visual rating about 3 weeks after treatment
Procedure, shortened: as §1

[11] = tested on: Hordeum murinum; assay: Post-emergence herbicidal action against HORMU
Procedure, shortened: as §1

[12] = tested on: Echinochloa crus-galli; assay: Post-emergence herbicidal action against ECHCG; settings: visual rating about 3 weeks after treatment
Procedure, shortened: as §1

[13] = tested on: DIGSA; assay: Post-emergence herbicidal action against DIGSA; settings: visual rating about 3 weeks after treatment
Procedure, shortened: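 Greenhouse-grown plants sprayed at one-leaf stage (2–3 weeks after sowing) with WP or EC formulations as aqueous suspension/emulsion plus 0.5% additive, 600 l/ha water. Activity rated visually about 3 weeks later versus untreated controls, 100% = plants dead, 0% = like controls.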

[14] = tested on: Setaria viridis; assay: Post-emergence herbicidal action against SETVI; settings: visual rating about 3 weeks after treatment
Procedure, shortened: as §1

[15] = tested on: Polygonum convolvulus; assay: Post-emergence herbicidal action against POLCO
Procedure, shortened: as §1

CSCCOC(=O)C1C=CC(NC(=O)C2(C(F)(F)F)CC(c3cc(F)cc(C#N)c3)=NO2)C1 (mixture of isomers) [Example I-38]
80%: Herbicidal action against [%] VIOTR ([1]; 80 g a.i./ha) | Herbicidal action against [%] AMARE ([7]; 20 g a.i./ha) | Herbicidal action against [%] AMARE ([7]; 80 g a.i./ha, visual rating about 3 weeks after treatment) | Herbicidal action against [%] ALOMY ([9]; 20 g a.i./ha) | Herbicidal action against [%] MATIN [10] | Herbicidal action against [%] HORMU ([11]; 20 g a.i./ha) | Herbicidal action against [%] HORMU ([11]; 80 g a.i./ha)
90%: Herbicidal action against [%] AVEFA ([2]; 20 g a.i./ha) | Herbicidal action against [%] AVEFA ([2]; 80 g a.i./ha) | Herbicidal action against [%] ABUTH ([4]; 20 g a.i./ha) | Herbicidal action against [%] ABUTH ([4]; 80 g a.i./ha) | Herbicidal action against [%] LOLRI ([5]; 20 g a.i./ha) | Herbicidal action against [%] LOLRI ([5]; 80 g a.i./ha) | Herbicidal action against [%] PHBPU [6] | Herbicidal action against [%] VERPE ([8]; 20 g a.i./ha) | Herbicidal action against [%] VERPE ([8]; 80 g a.i./ha) | Herbicidal action against [%] ALOMY ([9]; 80 g a.i./ha) | Herbicidal action against [%] ECHCG ([12]; 20 g a.i./ha) | Herbicidal action against [%] ECHCG ([12]; 80 g a.i./ha) | Herbicidal action against [%] DIGSA ([13]; 20 g a.i./ha) | Herbicidal action against [%] DIGSA ([13]; 80 g a.i./ha) | Herbicidal action against [%] SETVI ([14]; 20 g a.i./ha) | Herbicidal action against [%] SETVI ([14]; 80 g a.i./ha) | Herbicidal action against [%] POLCO ([15]; 20 g a.i./ha) | Herbicidal action against [%] POLCO ([15]; 80 g a.i./ha)
100%: Herbicidal action against [%] VIOTR ([1]; 20 g a.i./ha) | Herbicidal action against [%] STEME ([3]; 20 g a.i./ha) | Herbicidal action against [%] STEME ([3]; 80 g a.i./ha)
